{"source": "patent US20250262182A1", "about": "“Beverage Composition and Process” (priority 2020, published 2025)", "origin": "cited, not measured here", "note": "Like-named read-outs stand apart in the source and are kept apart here."}
{"smiles": "NC(=O)NCCC[C@H](N)C(=O)O", "note": "[L-citrulline]", "values": [{"measurement": "Adverse effects", "setting": "dosages in the range of 6 g to 10 g", "result": "mild gastrointestinal upset"}, {"measurement": "Adverse effects", "setting": "dosages in the range of 10 g to 15 g", "result": "stomach discomfort, bloating, or diarrhea"}, {"measurement": "Adverse effects", "setting": "dosages over 20 g", "result": "electrolyte imbalance and/or headaches"}, {"measurement": "Tolerability", "setting": "dosages up to 6 g, most people", "result": "generally well tolerated"}]}
